Assay results taken from patent US5780497A, “2-phenyl-1-[4-(amino-1-yl-alk-1-ynyl)-benzyl]-1H-indol-5-ols as estrogenic agents” (American Home Products Corporation, priority 1997, dated 1998).

Columns and labels:
estrogen receptor [1] = target: T1, estrogen receptor (Homo sapiens, UniProt P03372); experiment: In vitro estrogen receptor binding assay (competition with [3H]-17β-estradiol); set-up: made in house; host or cells: CHO cells overexpressing the receptor (100,000 g cytosol)
T1 sequence (P03372 1-595): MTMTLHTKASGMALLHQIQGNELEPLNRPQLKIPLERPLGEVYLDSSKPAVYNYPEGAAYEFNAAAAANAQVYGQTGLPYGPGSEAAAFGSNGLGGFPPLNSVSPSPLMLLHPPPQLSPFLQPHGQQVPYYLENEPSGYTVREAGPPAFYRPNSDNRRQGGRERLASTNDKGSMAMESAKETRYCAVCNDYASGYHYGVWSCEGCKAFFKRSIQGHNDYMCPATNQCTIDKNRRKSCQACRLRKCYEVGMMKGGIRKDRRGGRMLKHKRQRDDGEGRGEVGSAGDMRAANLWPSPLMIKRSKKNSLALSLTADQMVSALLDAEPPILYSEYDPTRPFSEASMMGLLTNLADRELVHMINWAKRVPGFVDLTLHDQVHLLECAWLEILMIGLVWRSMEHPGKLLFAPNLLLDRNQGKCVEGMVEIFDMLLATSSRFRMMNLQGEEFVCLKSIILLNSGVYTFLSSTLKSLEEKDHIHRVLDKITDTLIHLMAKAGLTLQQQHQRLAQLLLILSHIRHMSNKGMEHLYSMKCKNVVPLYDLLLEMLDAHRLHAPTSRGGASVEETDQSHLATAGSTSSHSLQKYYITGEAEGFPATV

Ishikawa cells = experiment: Ishikawa Cell Alkaline Phosphatase Assay; type: cell-based; conditions: Homo sapiens, 48 h, read-out: % Activation
Description: Ishikawa Cell Alkaline Phosphatase Assay
Cell Maintenance and Treatment
Ishikawa cells were maintained in DMEM/F12 (50%:50%) containing phenol red+10% fetal bovine serum and the medium was supplemented with 2 mM Glutamax, 1% Pen/Strap and 1 mM sodium pyruvate. Five days prior to the beginning of each experiment (treatment of cells) the medium was changed to phenol red-free DMEM/F12+10% dextran coated charcoal stripped serum. On the day before treatment, cells were harvested using 0.5% trypsin/EDTA and plated at a density of 5×10^4 cells/well in 96-well tissue culture plates. […] Cells were treated for 48 h prior to assay. […] Sample population for at each dose was n=8.
Alkaline Phosnhatase Assay
At the end of 48 h the media is aspirated and cells are washed three times with phosphate buffered saline (PBS). 50 μL of lysis buffer (0.1M Tris-HCl, pH 9.8, 0.2% Triton X-100) is added to each well. Plates are placed at -80° C. for a minimum of 15 minutes. Plates are thawed at 37° C. followed by the addition of 150 μL of 0.1M Tris-HCl, pH 9.8, containing 4 mM para-nitrophenylphosphate (pNPP) to each well (final concentration, 3 mM pNPP).
Absorbance and slope calculations were made using the KineticCalc Application program (Bio-Tek Instruments, Inc., Winooski, Vt.). Results are expressed as the mean±S.D. of the rate of enzyme reaction (slope) averaged over the linear portion of the kinetic reaction curve (optical density readings every 5 minutes for 30 minutes absorbance reading).
The four listed in the following were used as as reference standards:
A description of these methods is described by Holinka, C. F., Hata, H., Kuramoto, H. and Gurpide, E. (1986) Effects of steroid hormones and antisteroids on alkaline phosphatase activity in human endometrial cancer cells (Ishikawa Line). Cancer Research, 46:2771-2774, and by Littlefield, B. A., Gurpide, E., Markiewicz, L., McKinley, B. and Hochberg, R. B. (1990) A simple and sensitive microtiter plate estrogen bioassay based on stimulation alkaline phosphatase in Ishikawa cells; Estrogen action of D5 adrenal steroids. Endocrinology, 6:2757-2762.

estrogen receptor [2] = target: T1, estrogen receptor; experiment: 2X VIT ERE Transfection Assay (luciferase); type: cell-based; set-up: expressed in transfected cells; host or cells: CHO (Chinese Hamster Ovary) cells, stably transfected; conditions: 24 h; read-out: % Activation
uterine growth = conditions: ovariectomized rat, compared with Tamoxifen; cited from earlier work
bone [3] = conditions: rat, in vivo; cited from earlier work
uterus = conditions: in vivo; cited from earlier work
bone [4] = conditions: in humans; cited from earlier work

## Cc1c(-c2ccc(O)cc2)n(Cc2ccc(C#CCN3CCCCC3)cc2)c2ccc(O)cc12 [Example 5, 2-(4-Hydroxy-phenyl)-3-methyl-1-[4-(3-piperidin-1-yl-prop-1-ynyl)-benzyl]-1H-indol-5-ol]
Estrogen receptor [1]
  RBA (Estrogen Receptor Affinity): 23
Ishikawa cells
  Emax: 27%
Estrogen receptor [2]
  Emax at 1 µM: 17%

## O=C(c1ccc(OCCN2CCCCC2)cc1)c1c(-c2ccc(O)cc2)sc2cc(O)ccc12 [Raloxifene]
Uterine growth
  stimulation of uterine growth: to a lesser extent than Tamoxifen
Ishikawa cells
  Emax: 5%
Bone [3]
  ability to spare bone: maintaining the ability to spare bone

## CC/C(=C(\c1ccccc1)c1ccc(OCCN(C)C)cc1)c1ccccc1 [Tamoxifen]
Ishikawa cells
  Emax: 0%
uterus
  agonism in the uterus: partial agonist in the uterus
Bone [4]
  effect on the bone: estrogen agonist-like effect on the bone

## Cc1c(-c2ccc(O)cc2)n(Cc2ccc(C#CCN(C)C)cc2)c2ccc(O)cc12 [Example 4, 2-(4-Hydroxy-phenyl)-3-methyl-1-[4-(3-N,N-dimethyl-1-yl-prop-1-ynyl)-benzyl]-1H-indol-5-ol]
Estrogen receptor [1]
  RBA (Estrogen Receptor Affinity): 53
Ishikawa cells
  Emax: 34%
Estrogen receptor [2]
  Emax at 1 µM: 34%
